Assay results from patent publication US20190040584A1, “Use of DIPA-Esterquat Debonder For Tissue And Fluff Pulp Manufacturing” (Evonik Degussa GmbH, priority 2016, published 2019).

Assays:
Daphnia magna = conditions: in vivo
Fish = Fish aqua tox (OECD 203); assay type: in vivo

dialkyldimethyl ammonium chloride [Adogen 442]
Aquatoxicity, invertebrates, Daphnia magna; (202) 48 h; EC50 (Daphnia magna): 0.19 µg/mL | Fish; aqua tox (203); 96 h; LC50 (Fish): 10.1 µg/mL
